This passage reports IC50 results from patent US8461170B2, “Chemical compounds” (Astrazeneca AB, priority 2010, dated 2013).

Structures are written as SMILES.

T1 sequence (Q9UM73 1058-1620): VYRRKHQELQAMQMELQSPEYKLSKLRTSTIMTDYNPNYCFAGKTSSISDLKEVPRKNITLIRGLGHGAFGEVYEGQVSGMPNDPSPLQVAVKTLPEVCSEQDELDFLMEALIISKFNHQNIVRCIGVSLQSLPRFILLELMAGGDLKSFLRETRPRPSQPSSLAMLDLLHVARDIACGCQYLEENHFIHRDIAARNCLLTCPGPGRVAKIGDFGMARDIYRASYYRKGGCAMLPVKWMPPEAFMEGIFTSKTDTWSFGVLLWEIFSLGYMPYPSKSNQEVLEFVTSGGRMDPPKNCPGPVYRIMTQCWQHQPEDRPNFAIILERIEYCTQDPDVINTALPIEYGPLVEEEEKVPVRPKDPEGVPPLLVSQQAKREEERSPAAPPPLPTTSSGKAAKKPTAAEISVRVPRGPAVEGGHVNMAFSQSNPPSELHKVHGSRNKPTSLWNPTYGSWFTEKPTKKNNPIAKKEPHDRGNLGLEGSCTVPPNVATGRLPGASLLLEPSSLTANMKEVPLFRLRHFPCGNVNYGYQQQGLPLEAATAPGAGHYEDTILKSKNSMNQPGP

One test addresses T1, human ALK (Homo sapiens, UniProt Q9UM73).
T1 construct: GST (N); purchased Invitrogen, Carlsbad, Calif; (or prepared by AstraZeneca); host or cells: insect cells
The experiment in a line: ALK kinase mobility shift assay (Caliper LC3000). The test is classed as biochemical. The note with it: cumulative geometric means including test re-runs, some obtained since the priority filings; ATP 30 μM (Km) or 5 mM, not specified which; read-out: ALK Enzyme IC50 (μM)**. Here is the method: ALK kinase activity was determined by measuring the kinase's ability to phosphorylate a tyrosine residue within a peptide substrate using a mobility shift assay on a Caliper LC3000 reader (Caliper Life Sciences, Hopkinton, Mass.), which measures fluorescence of the phosphorylated and unphosphorylated substrate and calculates a ratiometric value to determine percent turnover.
To measure ALK kinase activity, the ALK enzyme used was N-terminal GST-tagged, recombinant, human ALK, amino acids 1058-1620 (Genbank Accession number NP_004295) expressed in insect cells and activated in-vitro via autophosphorylation. This was either purchased from a commercially available source (Invitrogen, Carlsbad, Calif.) or prepared by AstraZeneca. The kinase was incubated with a FAM labeled SRCtide substrate (5FAM-GEEPLYWSFPAKKK-NH2, AnaSpec, Fremont, Calif.), 30 μM adenosine triphosphate (ATP, at Km concentration) or 5 mM ATP, 50 mM HEPES buffer (pH 7.3), 1 mM DTT, 0.01% Tween 20, 50 μg/ml BSA and 10 mM MgCl2 for 90 minutes at room temperature. After this time, the kinase reaction was stopped by adding quenching buffer containing final concentrations of 36 mM ethylenediaminetetraacetic acid (EDTA), 65 mM HEPES buffer (pH 7.3), 0.2% Coatin Reagent 3 (Caliper Life Sciences, Hopkinton, Mass.), and 0.003% Tween 20. The reaction was performed in 384 well microtitre plates and the reaction products were detected using the Caliper LC3000 Reader in the presence of separation buffer consisting of 100 mM HEPES (pH 7.3), 15.8 mM EDTA, 0.1% Coatin Reagent 3 (Caliper, Mass.), 0.015% Brij-35, 5% DMSO, and 5.6 mM MgCl2. The separation conditions set up on the Caliper LC3000 were −1.7 PSI, −400V upstream voltage, −2000V downstream voltage, 0.2 second sample sip, 45 second post sip, and 150 seconds final delay. The percentage of inhibition of ALK enzyme activity by compounds were measured based on Max signals (DMSO control) and Min signals (EDTA control) in the plates. Data was graphed and IC50s calculated by IDBS ActivityBase program.
Turning to `COc1cc(N2CC[C@H](N)[C@H](F)C2)ccc1Nc1ncc(Cl)c(-c2c[nH]c3ccccc23)n1` [Example 33, N-(4-((3R,4S)-4-amino-3-fluoropiperidin-1-yl)-2-methoxyphenyl)-5-chloro-4-(1H-indol-3-yl)pyrimidin-2-amine], the IC50 was 0.03 µM.

On to `COc1cc(N2CCC(N(C)C)CC2)ccc1Nc1ncc(Cl)c(-c2c[nH]c3ccccc23)n1` [Example 12, 5-Chloro-N-(4-(4-(dimethylamino)piperidin-1-yl)-2-methoxyphenyl)-4-(1H-indol-3-yl)pyrimidin-2-amine], for which the IC50 stood at 0.021 µM. In the case of `COc1cc(P2(=O)CCC(N)CC2)ccc1Nc1ncc(Cl)c(-c2c[nH]c3ccccc23)n1` (single isomer, unassigned) [Example 42, N-[4-(4-amino-1-oxidophosphinan-1-yl)-2-methoxyphenyl]-5-chloro-4-(1H-indol-3-yl)pyrimidin-2-amine], the IC50 is 0.083 µM. On the same count and under the same terms, the value for `COc1cc(P2(=O)CCC(N)CC2)ccc1Nc1ncc(C)c(-c2c[nH]c3ccccc23)n1` (single isomer, unassigned) [Example 43, N-[4-(4-amino-1-oxidophosphinan-1-yl)-2-methoxyphenyl]-4-(1H-indol-3-yl)-5-methylpyrimidin-2-amine] was 0.158 µM.

In the case of `COc1cc(N2CCC(N)C(F)C2)ccc1Nc1ncc(Cl)c(-c2c[nH]c3ccccc23)n1` (single isomer, unassigned) [Example 50, (cis)-N-(4-(4-amino-3-fluoropiperidin-1-yl)-2-methoxyphenyl)-5-chloro-4-(1H-indol-3-yl)pyrimidin-2-amine], the 50% inhibitory concentration (IC50) is 0.022 µM.

Consider `COc1cc(N2CCC(N)C(F)C2)ccc1Nc1ncc(Cl)c(-c2c[nH]c3ccccc23)n1` (single isomer, unassigned) [Example 51, (cis)-N-(4-(4-amino-3-fluoropiperidin-1-yl)-2-methoxyphenyl)-5-chloro-4-(1H-indol-3-yl)pyrimidin-2-amine], for which the IC50 was found to be 0.031 µM. Same read-out and setting: the value for `CNC1CCN(c2ccc(Nc3ncc(Cl)c(-c4c[nH]c5ccccc45)n3)c(OC)c2)CC1(C)C` (centres unmarked) [Example 31, 5-chloro-N-(4-(3,3-dimethyl-4-(methylamino)piperidin-1-yl)-2-methoxyphenyl)-4-(1H-indol-3-yl)pyrimidin-2-amine] was 0.136 µM; that for `COc1cc(N2CCC(N)C(C)(C)C2)ccc1Nc1ncc(Cl)c(-c2c[nH]c3ccccc23)n1` (centres unmarked) [Example 30, N-(4-(4-amino-3,3-dimethylpiperidin-1-yl)-2-methoxyphenyl)-5-chloro-4-(1H-indol-3-yl)pyrimidin-2-amine] was 0.151 µM.

Staying with this test, now noted: geometric means of multiple test runs, as presented in the priority filings; ATP 30 μM (Km) or 5 mM, not specified which; read-out: ALK Enzyme IC50 (μM)*.
`COc1cc(N2CCC(N(C)C)CC2)ccc1Nc1ncc(C)c(-c2c[nH]c3ccccc23)n1` [Example 11, N-(4-(4-(Dimethylamino)piperidin-1-yl)-2-methoxyphenyl)-4-(1H-indol-3-yl)-5-methylpyrimidin-2-amine]: the IC50 worked out at 0.086 µM. For the compound `CNC1CCN(c2ccc(Nc3ncc(Cl)c(-c4c[nH]c5ccccc45)n3)c(OC)c2)CC1` [Example 2, 5-Chloro-4-(1H-indol-3-yl)-N-(2-methoxy-4-(4-(methylamino)piperidin-1-yl)phenyl)pyrimidin-2-amine], the IC50 came out at 0.023 µM. Still for that read-out and setting: the value for `COc1cc(N2CCC(N3CC[C@@H](F)C3)CC2)c(C)cc1Nc1ncc(Cl)c(-c2c[nH]c3ccccc23)n1` [Example 25, (R)-5-Chloro-N-(4-(4-(3-fluoropyrrolidin-1-yl)piperidin-1-yl)-2-methoxy-5-methylphenyl)-4-(1H-indol-3-yl)pyrimidin-2-amine] was 0.39 µM; that for `COc1cc(N2CC[C@H](N)[C@H](F)C2)ccc1Nc1ncc(Cl)c(-c2c[nH]c3ccccc23)n1` [Example 33, N-(4-((3R,4S)-4-amino-3-fluoropiperidin-1-yl)-2-methoxyphenyl)-5-chloro-4-(1H-indol-3-yl)pyrimidin-2-amine] was 0.025 µM; that for `COc1cc(N2CCC(N(C)C)CC2)ccc1Nc1ncc(Cl)c(-c2c[nH]c3ccccc23)n1` [Example 12, 5-Chloro-N-(4-(4-(dimethylamino)piperidin-1-yl)-2-methoxyphenyl)-4-(1H-indol-3-yl)pyrimidin-2-amine] was 0.023 µM. Consider `COc1cc(N2CCC(N)CC2)c(C)cc1Nc1ncc(Cl)c(-c2c[nH]c3ccccc23)n1` [Example 18, N-(4-(4-Aminopiperidin-1-yl)-2-methoxy-5-methylphenyl)-5-chloro-4-(1H-indol-3-yl)pyrimidin-2-amine], for which the IC50 was 0.027 µM.

Consider `COc1cc(N2CCC(N)CC2)ccc1Nc1ncc(F)c(-c2c[nH]c3ccccc23)n1` [Example 41, N-[4-(4-Amino-1-piperidyl)-2-methoxy-phenyl]-5-fluoro-4-(1H-indol-3-yl)pyrimidin-2-amine], for which the IC50 was determined as 0.068 µM. Same read-out and setting: the value for `COc1cc(N2CCC(N3CCN(C)CC3)CC2)ccc1Nc1ncc(C#N)c(-c2c[nH]c3ccccc23)n1` [Example 28, 4-(1H-Indol-3-yl)-2-(2-methoxy-4-(4-(4-methylpiperazin-1-yl)piperidin-1-yl)phenylamino)pyrimidine-5-carbonitrile] was 0.024 µM. Still for that read-out and setting: the value for `COc1cc(N2CCC(N3C[C@@H](C)O[C@@H](C)C3)CC2)ccc1Nc1ncc(Cl)c(-c2c[nH]c3ccccc23)n1` [Example 24, 5-Chloro-N-(4-(4-((2S,6R)-2,6-dimethylmorpholino)piperidin-1-yl)-2-methoxyphenyl)-4-(1H-indol-3-yl)pyrimidin-2-amine] was 0.14 µM; that for `COc1cc(N2CCC(N)CC2)c(C)cc1Nc1ncc(C)c(-c2c[nH]c3ccccc23)n1` [Example 19, N-(4-(4-aminopiperidin-1-yl)-2-methoxy-5-methylphenyl)-4-(1H-indol-3-yl)-5-methylpyrimidin-2-amine] was 0.052 µM; that for `COc1cc(N2CCC(NC3COC3)CC2)ccc1Nc1ncc(Cl)c(-c2c[nH]c3ccccc23)n1` [Example 26, 5-Chloro-4-(1H-indol-3-yl)-N-(2-methoxy-4-(4-(oxetan-3-ylamino)piperidin-1-yl)phenyl)pyrimidin-2-amine] was 0.113 µM. `CNC1CCN(c2ccc(Nc3ncc(Cl)c(-c4c[nH]c5ccccc45)n3)c(OC)c2)CC1(C)C` (centres unmarked) [Example 31, 5-chloro-N-(4-(3,3-dimethyl-4-(methylamino)piperidin-1-yl)-2-methoxyphenyl)-4-(1H-indol-3-yl)pyrimidin-2-amine]: the half-inhibitory concentration (IC50) amounted to 0.088 µM.

Take `COc1cc(N2CCC(N3CCN(C)CC3)CC2)c(F)cc1Nc1ncc(C)c(-c2c[nH]c3ccccc23)n1` [Example 38, N-[5-fluoro-2-methoxy-4-[4-(4-methylpiperazin-1-yl)-1-piperidyl]phenyl]-4-(1H-indol-3-yl)-5-methyl-pyrimidin-2-amine]: the half-inhibitory concentration (IC50) worked out at 0.258 µM. On the same count and under the same terms, the value for `COc1cc(N2CCC(N(C)C)CC2)ccc1Nc1ncc(F)c(-c2c[nH]c3ccccc23)n1` [Example 13, N-(4-(4-(Dimethylamino)piperidin-1-yl)-2-methoxyphenyl)-5-fluoro-4-(1H-indol-3-yl)pyrimidin-2-amine] was 0.05 µM. On the same count and under the same terms, the value for `COc1cc(N2CCC(NCCO)CC2)ccc1Nc1ncc(Cl)c(-c2c[nH]c3ccccc23)n1` [Example 20, 2-(1-(4-(5-Chloro-4-(1H-indol-3-yl)pyrimidin-2-ylamino)-3-methoxyphenyl)piperidin-4-ylamino)ethanol] was 0.029 µM; that for `COc1cc(N2CCC(N)C(C)(C)C2)ccc1Nc1ncc(Cl)c(-c2c[nH]c3ccccc23)n1` (centres unmarked) [Example 30, N-(4-(4-amino-3,3-dimethylpiperidin-1-yl)-2-methoxyphenyl)-5-chloro-4-(1H-indol-3-yl)pyrimidin-2-amine] was 0.182 µM; that for `COc1cc(N2CCC(N3CC[C@@H](F)C3)CC2)ccc1Nc1ncc(Cl)c(-c2c[nH]c3ccccc23)n1` [Example 22, 5-Chloro-N-(4-{4-[(3R)-3-fluoropyrrolidin-1-yl]piperidin-1-yl}-2-methoxyphenyl)-4-(1H-indol-3-yl)pyrimidin-2-amine] was 0.057 µM. As to `CNC1CCN(c2ccc(Nc3ncc(C)c(-c4c[nH]c5ccccc45)n3)c(OC)c2)CC1` [Example 4, 4-(1H-Indol-3-yl)-N-(2-methoxy-4-(4-(methylamino)piperidin-1-yl)phenyl)-5-methylpyrimidin-2-amine], the IC50 amounted to 0.052 µM.

As a reminder, the IC50 is the concentration that inhibits the measured activity by half.
